IC50, ED50 and UD50 data for 13 compounds are collected here from ChEMBL document CHEMBL1135906 (J Med Chem, 2002).

For test [1], the target named is T1, Prostaglandin G/H synthase 2 (Homo sapiens, UniProt P35354).
T1 sequence (P35354 whole entry): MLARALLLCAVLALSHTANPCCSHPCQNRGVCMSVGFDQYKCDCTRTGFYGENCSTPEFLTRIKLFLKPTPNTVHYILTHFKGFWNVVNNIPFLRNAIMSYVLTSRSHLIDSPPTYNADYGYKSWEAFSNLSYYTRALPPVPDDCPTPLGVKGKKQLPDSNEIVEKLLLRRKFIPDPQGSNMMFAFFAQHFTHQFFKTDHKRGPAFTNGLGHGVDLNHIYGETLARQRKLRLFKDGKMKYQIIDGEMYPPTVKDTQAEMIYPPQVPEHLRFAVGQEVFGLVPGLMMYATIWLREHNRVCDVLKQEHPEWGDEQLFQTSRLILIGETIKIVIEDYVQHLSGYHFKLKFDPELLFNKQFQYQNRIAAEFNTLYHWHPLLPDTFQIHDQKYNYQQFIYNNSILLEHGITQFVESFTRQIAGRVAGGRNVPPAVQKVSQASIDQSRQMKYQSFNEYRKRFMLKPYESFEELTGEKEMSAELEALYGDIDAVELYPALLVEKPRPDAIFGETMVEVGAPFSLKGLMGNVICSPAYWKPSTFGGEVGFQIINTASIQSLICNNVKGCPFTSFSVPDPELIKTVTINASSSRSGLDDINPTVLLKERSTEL
In words: Inhibition of human purified Prostaglandin G/H synthase 2.

The target of test [2] is Prostaglandin G/H synthase 1 (Homo sapiens, UniProt P23219). In words: Inhibition of human purified Prostaglandin G/H synthase 1.
Test [3] relates to Rattus norvegicus. The experiment in a line: The effective dose in vivo for activity against carrageenan induced paw edema in rat after administering perorally. It counts as functional. A general note: In the carrageenan paw model, swelling and tenderness develop within hours.
Test [4] relates to Rattus norvegicus. In words: Under dose in vivo for activity against carrageenan induced paw edema in rat after administering perorally. It counts as functional.
In test [5] the test system is Rattus norvegicus. In words: The compound was tested in vivo for activity against adjuvant-induced arthritis in rat after peroral administration. In kind it is functional. Conditions: po.
Test [6] concerns Rattus norvegicus. The experiment in a line: The compound was tested in vivo for activity against carrageenan induced paw edema in rat after peroral administration. In kind it is functional. As to conditions: po.
Test [7] relates to Rattus norvegicus. In words: The compound was tested in vivo for activity against yeast -induced hyperalgesia in rat after peroral administration. In kind it is functional. Conditions: po.
The subject of test [8] is Rattus norvegicus. In words: The compound was tested in vivo for activity against yeast -induced hyperthermia in rat after peroral administration. In kind it is functional. As to conditions: po.
Test [9] relates to Rattus norvegicus. The experiment in a line: The compound was tested in vivo for gastric ulcerogenic activity in rat after peroral administration. It counts as functional, Stomach.
Test [10] is filed under the species Rattus norvegicus. In words: animal or person. As to conditions: po.
Description: The compound was tested in vivo for activity against adjuvant-induced arthritis in rat after peroral administration after peroral administration

pIC50: −log10 of the molar value.

Chain of Prostaglandin G/H synthase 1 (P23219 whole entry): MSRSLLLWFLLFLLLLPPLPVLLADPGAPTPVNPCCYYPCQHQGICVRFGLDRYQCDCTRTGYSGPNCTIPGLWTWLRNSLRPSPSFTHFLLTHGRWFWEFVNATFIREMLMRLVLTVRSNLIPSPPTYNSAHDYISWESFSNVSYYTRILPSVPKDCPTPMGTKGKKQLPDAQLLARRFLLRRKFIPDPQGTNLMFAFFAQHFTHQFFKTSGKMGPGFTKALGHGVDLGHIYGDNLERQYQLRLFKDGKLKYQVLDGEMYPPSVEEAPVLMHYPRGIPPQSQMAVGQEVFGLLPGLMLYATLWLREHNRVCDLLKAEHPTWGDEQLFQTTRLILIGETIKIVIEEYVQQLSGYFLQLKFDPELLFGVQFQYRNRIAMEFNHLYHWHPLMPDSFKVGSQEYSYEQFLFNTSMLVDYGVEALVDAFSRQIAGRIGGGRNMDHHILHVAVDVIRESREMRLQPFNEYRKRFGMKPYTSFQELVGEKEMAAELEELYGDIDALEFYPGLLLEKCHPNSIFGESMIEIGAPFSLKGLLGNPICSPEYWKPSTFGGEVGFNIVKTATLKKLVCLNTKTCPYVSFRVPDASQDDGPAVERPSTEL

For orientation: pIC50 means the negative decadic logarithm of the IC50, by convention in mol/L. Usually ED50 stands for the dose that gives a 50% effect, or the effect in half of the subjects. Take `Cc1nc(C2CCCCC2)c(-c2ccc(S(N)(=O)=O)c(F)c2)o1` [TILMACOXIB]: the figures for the pIC50 in [1] and in test [2] were 7.07 and less than 4.00, respectively. In the test on Rattus norvegicus [3], the ED50 is 4.4 mg kg-1 [middle of 4 runs]. In addition, the UD50 with Rattus norvegicus [4] is greater than 300 mg/kg.

Compound `Cc1nc(C2CCCCC2)c(-c2ccc(S(N)(=O)=O)c(Cl)c2)o1` had a negative logarithm of the IC50 (pIC50) in test [2] of less than 4.00.

In the case of `Cc1nc(C2CCCCC2)c(-c2ccc(S(N)(=O)=O)c(C)c2)o1`, in test [2], the pIC50 is less than 4.00.

As for `CC(C)c1nc(C2CCCCC2)c(-c2ccc(S(N)(=O)=O)c(F)c2)o1`, the pIC50 in test [1] was 6.22; in [2], 4.53.

As to `Cc1nc(C2CCCCC2)c(-c2ccc(S(N)(=O)=O)c(N)c2)o1`, the negative logarithm of the IC50 (pIC50) is 6.03 in test [1] and less than 4.00 in test [2].

On to `COc1ccc2c(c1)c(CC(=O)O)c(C)n2C(=O)c1ccc(Cl)cc1` [INDOMETHACIN], for which the 50% effective dose (ED50) in the test on Rattus norvegicus [5] was determined as 0.13 mg/kg; in the test on Rattus norvegicus [6], 1.6 mg/kg; with Rattus norvegicus [7] it was 3.1 mg/kg; with Rattus norvegicus [8], 1.4 mg/kg. The same compound had a UD50 with Rattus norvegicus [9] of 3.4 mg/kg.

For the compound `Cc1nc(-c2ccc(C)s2)c(-c2ccc(S(N)(=O)=O)cc2)o1`, the negative logarithm of the IC50 (pIC50) is 7.92 in test [1] and 5.74 in test [2].

For `Cc1ccc(-c2cc(C(F)(F)F)nn2-c2ccc(S(N)(=O)=O)cc2)cc1` [CELECOXIB], the ED50 with Rattus norvegicus [6] was 2.8 mg/kg; in the test filed under Rattus norvegicus [10], 0.37 mg/kg. In the test on Rattus norvegicus [9], this compound registered a UD50 greater than 200 mg/kg.

Regarding `Cc1nc(-c2ccc(F)cc2)c(-c2ccc(S(N)(=O)=O)c(F)c2)o1`, the results for the negative logarithm of the IC50 (pIC50) in test [1] and in test [2] were 7.40 and 4.40, respectively.

In the case of `Cc1nc(-c2ccc(C)s2)c(-c2ccc(S(N)(=O)=O)c(F)c2)o1`, the pIC50 is 7.59 in test [1] and 4.60 in test [2].

For the compound `COc1cc(-c2oc(C)nc2C2CCCCC2)ccc1S(N)(=O)=O`, the negative logarithm of the IC50 (pIC50) in test [1] and in test [2] was less than 4.00 in each case.

For `Cc1nc(C2CCCCC2)c(-c2ccc(S(N)(=O)=O)c(O)c2)o1`, the pIC50 in [1] was 4.71; in [2], less than 4.00.

Take `CCc1nc(C2CCCCC2)c(-c2ccc(S(N)(=O)=O)c(F)c2)o1`: the pIC50 is 6.92 in test [1] and 4.33 in test [2].
